Assay results: PubChem BioAssay (NCI)
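Method: 48-hour compound exposure of cells in 96-well plates, five concentrations, linear interpolation of endpoints. GI50 is the concentration that inhibits growth by half. TGI is the concentration that stops growth completely.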

Test system: K-562 leukemia
Experiment: growth of human tumour cells (NCI), 48 h

Row | SMILES | TGI [µM]
1 | O=c1nc(N2CCNCC2)oc2cc(Cl)oc(=O)c12 | > 27.4
2 | COc1ccc(C2=C(c3ccc(OC)cc3)C(=O)N3CCCC3C2)cc1 (centres undefined) | > 100

Test system: HOP-62 NSCLC
Experiment: growth of human tumour cells (NCI), 48 h

Row | SMILES | TGI [µM] | GI50 [µM]
3 | COC(=O)c1s/c(=N\C(=S)N(C)C)n(-c2ccc(Cl)cc2)c1C(=O)OC | > 100 | –
4 | O=C(O)CCSC(CC1(c2ccc(Cl)cc2)NC(=O)CCS1)c1ccccc1 (centres undefined) | 44.1 | –
5 | C=C1C(=O)OC2CC(C)C(C(O)CC(C)O)=CCC12 (centres undefined) | > 74.3 | –
6 | O=c1nc(N2CCNCC2)oc2cc(Cl)oc(=O)c12 | 14 | –
7 | COc1ccc(C2=C(c3ccc(OC)cc3)C(=O)N3CCCC3C2)cc1 (centres undefined) | > 100 | 16.5

Test system: OVCAR-4 ovarian
Experiment: growth of human tumour cells (NCI), 48 h

Row | SMILES | TGI [µM] | GI50 [µM]
8 | COC(=O)c1s/c(=N\C(=S)N(C)C)n(-c2ccc(Cl)cc2)c1C(=O)OC | > 100 | –
9 | COC1CCCCN1C(=O)c1ccccc1 (centres undefined) | > 25.3 | –
10 | O=C(O)CCSC(CC1(c2ccc(Cl)cc2)NC(=O)CCS1)c1ccccc1 (centres undefined) | 29.3 | –
11 | C=C1C(=O)OC2CC(C)C(C(O)CC(C)O)=CCC12 (centres undefined) | 42.2 | –
12 | O=c1nc(N2CCNCC2)oc2cc(Cl)oc(=O)c12 | 21.6 | –
13 | COc1ccc(C2=C(c3ccc(OC)cc3)C(=O)N3CCCC3C2)cc1 (centres undefined) | > 100 | 15.5

Test system: SNB-19 CNS
Experiment: growth of human tumour cells (NCI), 48 h

Row | SMILES | TGI [µM] | GI50 [µM]
14 | COC(=O)c1s/c(=N\C(=S)N(C)C)n(-c2ccc(Cl)cc2)c1C(=O)OC | > 100 | –
15 | COC1CCCCN1C(=O)c1ccccc1 (centres undefined) | > 25.3 | –
16 | O=C(O)CCSC(CC1(c2ccc(Cl)cc2)NC(=O)CCS1)c1ccccc1 (centres undefined) | > 56.1 | –
17 | C=C1C(=O)OC2CC(C)C(C(O)CC(C)O)=CCC12 (centres undefined) | > 100 | –
18 | O=c1nc(N2CCNCC2)oc2cc(Cl)oc(=O)c12 | 36.7 | –
19 | COc1ccc(C2=C(c3ccc(OC)cc3)C(=O)N3CCCC3C2)cc1 (centres undefined) | > 100 | 45.6

Test system: HCC-2998 colon
Experiment: growth of human tumour cells (NCI), 48 h

Row | SMILES | TGI [µM] | GI50 [µM]
20 | COC(=O)c1s/c(=N\C(=S)N(C)C)n(-c2ccc(Cl)cc2)c1C(=O)OC | > 100 | –
21 | COC1CCCCN1C(=O)c1ccccc1 (centres undefined) | > 25.3 | –
22 | O=C(O)CCSC(CC1(c2ccc(Cl)cc2)NC(=O)CCS1)c1ccccc1 (centres undefined) | 39.6 | –
23 | C=C1C(=O)OC2CC(C)C(C(O)CC(C)O)=CCC12 (centres undefined) | 33.2 | –
24 | O=c1nc(N2CCNCC2)oc2cc(Cl)oc(=O)c12 | 25.1 | –
25 | COc1ccc(C2=C(c3ccc(OC)cc3)C(=O)N3CCCC3C2)cc1 (centres undefined) | 93.4 | 26.4

Test system: NCI-H23 lung
Experiment: growth of human tumour cells (NCI), 48 h

Row | SMILES | TGI [µM] | GI50 [µM]
26 | COC(=O)c1s/c(=N\C(=S)N(C)C)n(-c2ccc(Cl)cc2)c1C(=O)OC | > 100 | –
27 | COC1CCCCN1C(=O)c1ccccc1 (centres undefined) | > 25.3 | –
28 | O=C(O)CCSC(CC1(c2ccc(Cl)cc2)NC(=O)CCS1)c1ccccc1 (centres undefined) | 50.1 | –
29 | C=C1C(=O)OC2CC(C)C(C(O)CC(C)O)=CCC12 (centres undefined) | 33.3 | –
30 | O=c1nc(N2CCNCC2)oc2cc(Cl)oc(=O)c12 | 27 | –
31 | COc1ccc(C2=C(c3ccc(OC)cc3)C(=O)N3CCCC3C2)cc1 (centres undefined) | > 100 | 41.9

Test system: SN12C renal
Experiment: growth of human tumour cells (NCI), 48 h

Row | SMILES | TGI [µM] | GI50 [µM]
32 | COC(=O)c1s/c(=N\C(=S)N(C)C)n(-c2ccc(Cl)cc2)c1C(=O)OC | > 100 | –
33 | COC1CCCCN1C(=O)c1ccccc1 (centres undefined) | > 25.3 | –
34 | O=C(O)CCSC(CC1(c2ccc(Cl)cc2)NC(=O)CCS1)c1ccccc1 (centres undefined) | 33.4 | –
35 | C=C1C(=O)OC2CC(C)C(C(O)CC(C)O)=CCC12 (centres undefined) | 33.1 | –
36 | O=c1nc(N2CCNCC2)oc2cc(Cl)oc(=O)c12 | 33.1 | –
37 | COc1ccc(C2=C(c3ccc(OC)cc3)C(=O)N3CCCC3C2)cc1 (centres undefined) | > 100 | 22.5

Test system: OVCAR-8 ovarian
Experiment: growth of human tumour cells (NCI), 48 h

Row | SMILES | TGI [µM] | GI50 [µM]
38 | COC(=O)c1s/c(=N\C(=S)N(C)C)n(-c2ccc(Cl)cc2)c1C(=O)OC | > 100 | –
39 | O=C(O)CCSC(CC1(c2ccc(Cl)cc2)NC(=O)CCS1)c1ccccc1 (centres undefined) | 39.5 | –
40 | C=C1C(=O)OC2CC(C)C(C(O)CC(C)O)=CCC12 (centres undefined) | 43.8 | –
41 | O=c1nc(N2CCNCC2)oc2cc(Cl)oc(=O)c12 | 5.67 | –
42 | COc1ccc(C2=C(c3ccc(OC)cc3)C(=O)N3CCCC3C2)cc1 (centres undefined) | > 100 | 10.4
